The values below come from patent publication EP3501490A1, “COMPOSITION FOR EXTERNAL USE THAT INCLUDES PTEROSTILBENE GLYCOSIDE” (Tomoike Industrial (H.K.) Limited, priority 2016, dated 2018).

Each structure is given as a SMILES string.

One test concerns type IV collagen gene. As to the kind of experiment: Type IV collagen mRNA expression in human skin cells by microarray method (Experimental Example 1). It counts as cell-based. The conditions noted are these: 120 h, cultured for 5 days, hTERT-immortalized human skin cells, read-out: increase of the expression amount of type IV collagen gene compared to the negative control experiment. Here is the method: Human skin cells were immortalized by introducing the hTERT gene and acclimated in a predetermined medium, Prigrow III (APB). Thereafter, the pterostilbene monoglucoside (50 µM) was added to the conditioned medium and cultured for 5 days in a 5% CO2 environment at 37°C.
RNA was collected from the cells after culturing, and changes in the amount of type IV collagen mRNA expression were analyzed by microarray method. […] A negative control experiment was also performed in which the pterostilbene monoglucoside was not added to the conditioned medium.

In test [1] the target is T1, Tyrosinase (Cat. No. T3824, SIGMA) (Agaricus bisporus, UniProt C7FF04).
T1 construct: purchased SIGMA T3824
Description: In vitro tyrosinase inhibition experiment (Experimental Example 3). It counts as biochemical. The conditions noted are these: fold more excellent than the aglycone pterostilbene, based on IC50 values of Fig. 3. The method, then: The tyrosinase inhibitory effect of pterostilbene monoglucoside was analyzed (IC50 values were measured) based on a generally known method (e.g., Expert Opin Ther Pat. 2016; 26(3): 347-62). Tyrosinase (Cat. No. T3824, SIGMA) was used as tyrosinase. Further, pterostilbene (produced by Tokyo Chemical Industry Co., Ltd.; A in the figure), the pterostilbene monoglucoside above (B in the figure), and arbutin as a positive control (C in the figure) were used.

For a further test, the system named is type IV collagen. As to the kind of experiment: Type IV collagen protein expression in three-dimensional skin model by western blotting and densitometry (Experimental Examples 2 and 5). It counts as cell-based. The following applies: Homo sapiens, 168 h; 25 µM and 100 µM final concentrations, 7 days; at most (maximum), concentration dependent; α-tubulin internal standard; read-out: increase of the amount of type IV collagen expression in the three-dimensional skin model compared to the control.

T1 sequence (C7FF04 2-392 limits assumed): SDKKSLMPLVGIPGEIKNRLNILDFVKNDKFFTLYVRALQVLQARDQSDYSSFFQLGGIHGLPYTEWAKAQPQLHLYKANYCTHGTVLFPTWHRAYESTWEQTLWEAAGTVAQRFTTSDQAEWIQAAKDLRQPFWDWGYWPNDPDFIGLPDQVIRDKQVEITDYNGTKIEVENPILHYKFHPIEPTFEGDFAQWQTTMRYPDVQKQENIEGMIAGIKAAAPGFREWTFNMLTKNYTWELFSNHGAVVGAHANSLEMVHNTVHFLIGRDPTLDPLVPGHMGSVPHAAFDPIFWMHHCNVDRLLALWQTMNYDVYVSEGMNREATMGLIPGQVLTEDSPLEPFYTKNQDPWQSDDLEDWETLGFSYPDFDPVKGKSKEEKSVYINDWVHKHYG

For the molecule `COc1cc(/C=C/c2ccc(OC3O[C@H](CO)[C@@H](O)[C@H](O)[C@H]3O)cc2)cc(OC)c1` (stereo partly drawn) [pterostilbene monoglucoside], the fold induction at 50 µM in the test with type IV collagen gene was ~1.35. Moreover, the “tyrosinase inhibitory effect relative to pterostilbene (comparison of IC50 values)” value in test [1] is listed as ~5.5 times. Further, the maximal fold induction with type IV collagen was ~2.5.
